Assay results from patent US10934310B2, “Inhibitors of Bruton's tyrosine kinase and method of their use” (JANSSEN PHARMACEUTICA NV, priority 2015, dated 2021).

Molecular target: unphosphorylated-BTK kinase domain (UP-BTK), GST-tagged human BTK (389-659aa) (Homo sapiens (Human), UniProt Q06187)
Test: BTK Kinase Lanthascreen Binding Assay
Conditions: Lanthascreen binding, 60 minutes incubation; pIC50 = negative log of the IC50 in molar
Procedure: BTK Kinase Lanthascreen Binding Assay:
A BTK kinase lanthascreen binding assay monitors compound binding to unphosphorylated-BTK kinase domain (UP-BTK), by competing with a fluorescent labeled tracer. […] Data were analyzed using Xlfit™ version 5.3 from ID Business Solutions (Guildford), Microsoft Excel add-in. pIC50 refers to the negative log of the IC50 in molar.

Sequence of unphosphorylated-BTK kinase domain (UP-BTK), GST-tagged human BTK (389-659aa) (Q06187 389-659): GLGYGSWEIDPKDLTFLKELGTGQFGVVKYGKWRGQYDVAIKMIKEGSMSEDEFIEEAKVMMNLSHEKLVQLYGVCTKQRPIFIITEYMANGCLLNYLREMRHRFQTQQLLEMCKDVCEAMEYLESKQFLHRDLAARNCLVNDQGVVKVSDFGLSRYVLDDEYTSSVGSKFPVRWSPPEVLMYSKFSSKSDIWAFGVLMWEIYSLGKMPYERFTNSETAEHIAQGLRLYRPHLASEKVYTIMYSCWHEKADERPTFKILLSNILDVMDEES

SMILES	BTK_I_binding pIC50
C=CC(=O)N[C@H]1CCCC[C@H]1NC(=O)c1sc2nccc3c2c1NC(=O)N3c1ccc(Oc2ccccc2)nc1C (single isomer, unassigned) [Example 303, N-((1R,2S)-2-Acrylamidocyclohexyl)-5-(*S)-(2-methyl-6-phenoxypyridin-3-yl)-4-oxo-4,5-dihydro-3H-1-thia-3,5,8-triazaacenaphthylene-2-carboxamide]	8.40
C=CC(=O)N[C@H]1CCC[C@H]1NC(=O)c1sc2nccc3c2c1NC(=O)N3c1ccc(OC2CCOCC2)cc1C (single isomer, unassigned) [Example 304, N-((1R,2S)-2-Acrylamidocyclopentyl)-5-(*S)-(2-methyl-4-((tetrahydro-2H-pyran-4-yl)oxy)phenyl)-4-oxo-4,5-dihydro-3H-1-thia-3,5,8-triazaacenaphthylene-2-carboxamide]	7.48
C=CC(=O)N[C@H]1CC[C@H](NC(=O)c2sc3nccc4c3c2NC(=O)N4c2cnc(Oc3ccccc3)cc2C)C1 (single isomer, unassigned) [Example 306, N-((1*S,3*S)-3-Acrylamidocyclopentyl)-5-(*S)-(4-methyl-6-phenoxypyridin-3-yl)-4-oxo-4,5-dihydro-3H-1-thia-3,5,8-triazaacenaphthylene-2-carboxamide]	8.04
C=CC(=O)N[C@H]1CCC[C@H](NC(=O)c2sc3nccc4c3c2NC(=O)N4c2cnc(Oc3ccccc3)cc2C)C1 (single isomer, unassigned) [Example 308, N-((1*S,3*S)-3-Acrylamidocyclohexyl)-5-(*S)-(4-methyl-6-phenoxypyridin-3-yl)-4-oxo-4,5-dihydro-3H-1-thia-3,5,8-triazaacenaphthylene-2-carboxamide]	7.78
C=CC(=O)N[C@H]1CCCC[C@H]1NC(=O)c1sc2nccc3c2c1NC(=O)N3c1cnc(OC2CCCC2)cc1C (single isomer, unassigned) [Example 309, N-((1R,2S)-2-Acrylamidocyclohexyl)-5-(*S)-(6-(cyclopentyloxy)-4-methylpyridin-3-yl)-4-oxo-4,5-dihydro-3H-1-thia-3,5,8-triazaacenaphthylene-2-carboxamide]	7.91
C=CC(=O)N[C@H]1CCCC[C@H]1NC(=O)c1sc2nccc3c2c1NC(=O)N3c1cnc(OCC(C)C)cc1C (single isomer, unassigned) [Example 312, N-((1R,2S)-2-Acrylamidocyclohexyl)-5-(*S)-(6-isobutoxy-4-methylpyridin-3-yl)-4-oxo-4,5-dihydro-3H-1-thia-3,5,8-triazaacenaphthylene-2-carboxamide]	8.01
C=CC(=O)N[C@@H]1CC[C@H](NC(=O)c2sc3nccc4c3c2NC(=O)N4c2ccc(Oc3ccccc3)cn2)C1 (single isomer, unassigned) [Example 313]	7.83
C=CC(=O)N[C@H]1CCC[C@H](NC(=O)c2sc3nccc4c3c2NC(=O)N4c2ccc(Oc3ccccc3)cn2)C1 (single isomer, unassigned) [Example 315, N-((1*S,3*S)-3-Acrylamidocyclohexyl)-4-oxo-5-(5-phenoxypyridin-2-yl)-4,5-dihydro-3H-1-thia-3,5,8-triazaacenaphthylene-2-carboxamide]	7.50
C=CC(=O)N[C@@H]1CCC[C@H]1NC(=O)c1sc2nccc3c2c1NC(=O)N3c1ccc(OC(C)C)cc1C (single isomer, unassigned) [Example 316, N-((1R,2R)-2-Acrylamidocyclopentyl)-5-(*S)-(4-isopropoxy-2-methylphenyl)-4-oxo-4,5-dihydro-3H-1-thia-3,5,8-triazaacenaphthylene-2-carboxamide]	7.33
Cc1nc(Oc2ccccc2)ccc1N1C(=O)Nc2c(C(=O)N[C@@H]3CCC[C@@H]3N)sc3nccc1c23 (single isomer, unassigned) [Example 318, N-((1*R,2*S)-2-Aminocyclopentyl)-5-(*S)-(2-methyl-6-phenoxypyridin-3-yl)-4-oxo-4,5-dihydro-3H-1-thia-3,5,8-triazaacenaphthylene-2-carboxamide]	6.46

Other lines, results leading:

BTK_I_binding pIC50	SMILES
7.71	C=CC(=O)N[C@H]1CC[C@H](NC(=O)c2sc3nccc4c3c2NC(=O)N4c2ccc(Oc3ccccc3)nc2)C1 (single isomer, unassigned) [Example 321, N-((1*S,3*S)-3-Acrylamidocyclopentyl)-4-oxo-5-(6-phenoxypyridin-3-yl)-4,5-dihydro-3H-1-thia-3,5,8-triazaacenaphthylene-2-carboxamide]
6.81	C=CC(=O)N[C@@H]1CCCC[C@H]1NC(=O)c1sc2nccc3c2c1NC(=O)N3c1ccc(Oc2ccccc2)nc1C (single isomer, unassigned) [Example 322, N-((1R,2R)-2-Acrylamidocyclohexyl)-5-(*S)-(2-methyl-6-phenoxypyridin-3-yl)-4-oxo-4,5-dihydro-3H-1-thia-3,5,8-triazaacenaphthylene-2-carboxamide]
7.13	C=CC(=O)N[C@H]1CCC[C@H](NC(=O)c2sc3nccc4c3c2NC(=O)N4c2ccc(Oc3ccccc3)nc2)C1 (single isomer, unassigned) [Example 323]
6.58	C=CC(=O)N[C@H]1CC[C@@H](NC(=O)c2sc3nccc4c3c2NC(=O)N4c2ccc(Oc3ccccc3)cn2)C1 (single isomer, unassigned) [Example 328, N-((1*R,3*S)-3-Acrylamidocyclopentyl)-4-oxo-5-(5-phenoxypyridin-2-yl)-4,5-dihydro-3H-1-thia-3,5,8-triazaacenaphthylene-2-carboxamide]
6.85	C=CC(=O)N[C@@H]1CC[C@@H](NC(=O)c2sc3nccc4c3c2NC(=O)N4c2cnc(Oc3ccccc3)cc2C)C1 (single isomer, unassigned) [Example 329, N-((1*R,3*R)-3-Acrylamidocyclopentyl)-5-(*S)-(4-methyl-6-phenoxypyridin-3-yl)-4-oxo-4,5-dihydro-3H-1-thia-3,5,8-triazaacenaphthylene-2-carboxamide]
6.66	C=CC(=O)N[C@@H]1CCC[C@@H](NC(=O)c2sc3nccc4c3c2NC(=O)N4c2ccc(Oc3ccccc3)nc2)C1 (single isomer, unassigned) [Example 331, N-((1*R,3*R)-3-Acrylamidocyclohexyl)-4-oxo-5-(6-phenoxypyridin-3-yl)-4,5-dihydro-3H-1-thia-3,5,8-triazaacenaphthylene-2-carboxamide]
6.60	C=CC(=O)N[C@@H]1CCC[C@@H](NC(=O)c2sc3nccc4c3c2NC(=O)N4c2cnc(Oc3ccccc3)cc2C)C1 (single isomer, unassigned) [Example 332, N-((1*R,3*R)-3-Acrylamidocyclohexyl)-5-(*S)-(4-methyl-6-phenoxypyridin-3-yl)-4-oxo-4,5-dihydro-3H-1-thia-3,5,8-triazaacenaphthylene-2-carboxamide]
6.50	Cc1nc(Oc2ccccc2)ccc1N1C(=O)Nc2c(C(=O)N[C@@H]3CCCC[C@@H]3N)sc3nccc1c23 (single isomer, unassigned) [Example 333, N-((1R,2S)-2-Aminocyclohexyl)-5-(*S)-(2-methyl-6-phenoxypyridin-3-yl)-4-oxo-4,5-dihydro-3H-1-thia-3,5,8-triazaacenaphthylene-2-carboxamide]
